Tested on: gp60-mediated caveolar transcytosis
Test: Inhibition of transport of paclitaxel from ABX across endothelial monolayers
Assay type: cell-based, human
Text: Transport was dependent on albumin.

Compound | effect on transport of paclitaxel from ABX across endothelial monolayers
CCN1C(=O)C=CC1=O [NEM] | inhibited
β-methyl cyclodextrin [BMC] | inhibited

From patent US7332568B2, “Q3 SPARC deletion mutant and uses thereof” (Abraxis BioScience, Inc., priority 2005, dated 2008)
